# Assays:
# [1] = system: 20-HETE formation (CYP4) in RLM; experiment: Inhibition of 20-HETE formation at 250 or 500 nM in RLM microsomal incubations; format: biochemical, rat; details: 500 nM compound; RLM 300 μg/ml
# Protocol: (§1) To screen the inhibitory effects against 20-HETE formation, compounds were screened in HLM, RLM, RKM and rCYP4F2 microsomal incubations. Compounds dissolved in either 100% methanol or 100% DMSO to yield 10 mM stock solution. Microsomal incubations containing HLM, RLM, RKM (300 μg/ml) or rCYP4F2 (25 pmol/mL), AA (100 μM), NADPH (1 mM) treated with test compounds at various concentrations (500 nM or 250 nM) in a 1 ml total volume in incubation buffer (0.12 M potassium phosphate buffer containing 5 mM magnesium chloride). Reaction was started by adding NADPH to the incubates and was carried out at 37° C. in a shaking water bath for 20 min. Reaction was stopped by placing tubes on ice, followed by adding 125 μl 20-HETE-d6 as internal standard to each sample. Microsomal incubations were extracted with 3 ml ethyl ether twice, dried down under nitrogen gas and reconstituted in 125 μl 80:20 methanol:deionized H2O for analysis. 20-HETE formation was quantified using a validated UPLC-MS/MS assay and normalized by vehicle group. Each compound had three replications (n=3). Vehicle group was used as control to calculate percentage of 20-HETE formation rate. HET0016 (250 nM) was used as positive control. Incubates without NADPH group served as the negative control. An Acquity ultra performance LC autosampler (Waters, Milford, MA) was used to isolate 20-HETE on an UPLC BEH C18, 1.7 μm (2.1×100 mm) reversed-phase column (Waters, Milford, MA) protected by a guard column (2.1×5 mm; Waters, Milford, MA) of the same packing material. Column temperature was maintained at 55° C. Mobile phases consisted of 0.005% acetic acid, 5% acetonitrile in deionized water (A) and 0.005% acetic acid in acetonitrile (B). The flow rate for mobile phases is 0.5 ml/min. The initial mixture of mobile phase was 65:35 of A and B. Mobile phase B increased at 0.4 minutes after injection from 35% to 70% in a linear gradient over 4 minutes, and again increased to 95% over 0.5 minutes where it remained for 0.3 minutes. This was followed by a linear return to initial conditions over 0.1 minutes with a 1.5 minute pre-equilibration period prior to the next sample run. Total run time was 6.4 minutes for each injection. Injection volumes were 7.5 μl. Mass spectrometric analysis was carried out using a TSQ Quantum Ultra (Thermo Fisher Scientific, San Jose, CA) triple quadrupole mass spectrometer using heated electrospray ionization (HESI). Mass spectrometer was operated in negative selective reaction monitoring (SRM) mode with unit resolutions at both Q1 and Q3 set at 0.70 Da full width at half maximum. Scan time was set at 0.01 s and collision gas pressure was 1.3 mTorr. Quantitation of 20-HETE by SRM was performed by monitoring the m/z. Analytical data was acquired and analyzed using Xcaliber 3.0 data system (ThermoFinnigan, San Jose, CA).
# rCYP4F2 = target: T1, rCYP4F2 (Homo sapiens, UniProt P78329); experiment: Inhibition of 20-HETE formation at 250 or 500 nM in rCYP4F2 incubations; format: biochemical; details: 500 nM compound, rCYP4F2 25 pmol/mL; for inhibition at 0.5 µM: read-out: rCYP4F2 % inh. @ 500 nM
# T1 sequence (P78329 5-520): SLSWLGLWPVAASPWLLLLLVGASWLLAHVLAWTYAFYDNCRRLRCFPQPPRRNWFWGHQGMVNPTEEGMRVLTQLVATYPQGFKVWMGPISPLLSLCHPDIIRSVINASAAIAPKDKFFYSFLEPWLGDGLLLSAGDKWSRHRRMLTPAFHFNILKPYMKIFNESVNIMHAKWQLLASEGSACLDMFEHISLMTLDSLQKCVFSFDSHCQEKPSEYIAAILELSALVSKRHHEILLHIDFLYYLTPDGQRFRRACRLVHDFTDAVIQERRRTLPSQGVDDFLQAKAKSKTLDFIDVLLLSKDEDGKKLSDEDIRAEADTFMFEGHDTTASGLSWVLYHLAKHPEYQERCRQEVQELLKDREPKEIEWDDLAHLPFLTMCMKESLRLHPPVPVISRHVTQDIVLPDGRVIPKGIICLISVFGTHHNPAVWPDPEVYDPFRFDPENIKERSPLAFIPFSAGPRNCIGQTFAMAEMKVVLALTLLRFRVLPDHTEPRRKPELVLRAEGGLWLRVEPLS
# Protocol: as §1
# [2] = system: 20-HETE formation (CYP4) in RKM; experiment: Inhibition of 20-HETE formation at 250 or 500 nM in RKM microsomal incubations; format: biochemical, rat; details: 500 nM compound; RKM 300 μg/ml
# Protocol: as §1
# [3] = system: 20-HETE formation (CYP4) in HLM; experiment: Inhibition of 20-HETE formation at 250 or 500 nM in HLM microsomal incubations; format: biochemical, human; details: 500 nM compound; HLM 300 μg/ml, AA 100 μM, 20 min
# Protocol: as §1
# [4] = Turbidometric solubility determination; format: physicochemical; details: PBS with 1% DMSO, aqueous buffer, kinetic from dmso stock, room temperature, OD620, read-out: Max Solub
# Protocol: Solubility determinations shown in Table 3 were obtained turbidometrically and in a manner similar to the one described in Perez et al., J. Biomol. Screen, 2015, 20(2), 254-64. The method requires small volumes of 100× stock concentration drug solution to be prepared in DMSO 0, 0.23, 0.47, 0.94, 1.88, 3.75, 7.5, 15.0, 30.0 and […]. The stock drug concentrations are then diluted 1:100 added into triplicate wells containing PBS in a clear bottom 384 well microtiter to achieve final testing concentrations of 0, 2.3, 4.7, 9.4, 18.8, 37.5, 75, 150, 300, 600 μM in 1% DMSO. The plate is allowed to equilibrate with constant shaking for 2 hours at room temperature. The plate is then placed in a SpectroMax V plate reader to measure absorbance at 620 nm. Increase in absorbance is evident in test wells which precipitation of the compound is evident. The plot of OD620 vs. drug concentration is used to calculate the maximum solubility limit as determined by a statistically significant increase in absorbance above the background levels.
RLM % inh. @ 500 nM [1] [%],inhibition at 0.5 µM (rCYP4F2) [%],RKM % inh. @ 500 nM [2] [%],HLM % inh. @ 500 nM [3] [%],solubility at 2 h [4] [µM],rCYP4F2 % inh. @ 500 nM (rCYP4F2) [%],SMILES
53.00,94,26.00,77.00,–,–,"Fc1ccccc1C1CCN(c2cn[nH]c2)CC1 [Compound 51, 4-(2-Fluorophenyl)-1-(1H-pyrazol-4-yl)piperidine]"
41.00,70,0.00,66.00,–,–,"Fc1ccc(C2CCN(c3ccn[nH]3)CC2)cc1 [Compound 18, 4-(4-Fluorophenyl)-1-(1H-pyrazol-5-yl)piperidine]"
18.30,63.7,6.40,0.00,–,–,"COC(=O)c1ccc(C2CCN(c3cn[nH]c3)CC2)cc1 [Compound 12, Methyl 4-(1-(1H-pyrazol-4-yl)piperidin-4-yl)benzoate]"
29.00,28,0.00,27.00,–,–,"COc1cc(C2CCN(c3ccn[nH]3)CC2)ccn1 [Compound 16, 4-(1-(1H-Pyrazol-5-yl)piperidin-4-yl)-2-methoxypyridine]"
31.00,90,28.00,80.00,–,–,"Fc1cccc(C2CCN(c3cn[nH]c3)CC2)c1 [Compound 49, 4-(3-Fluorophenyl)-1-(1H-pyrazol-4-yl)piperidine]"
0.00,2.6,0.00,24.50,–,–,"c1ccc(N2CCN(c3cn[nH]c3)CC2)cc1 [Compound 5, 1-Phenyl-4-(1H-pyrazol-4-yl)piperazine]"
16.00,54,27.00,39.00,–,–,"COc1cc(C2CCN(c3cn[nH]c3)CC2)ccn1 [Compound 15, 4-(1-(1H-Pyrazol-4-yl)piperidin-4-yl)-2-methoxypyridine]"
16.00,69,18.00,47.00,–,–,"Fc1ccccc1C1CCN(c2ccn[nH]2)CC1 [Compound 50, 4-(2-Fluorophenyl)-1-(1H-pyrazol-5-yl)piperidine]"
17.00,79,31.00,82.00,–,–,"COc1ccc(C2CCN(c3ccn[nH]3)CC2)cc1F [Compound 43, 4-(3-Fluoro-4-methoxyphenyl)-1-(1H-pyrazol-5-yl)piperidine]"
0.00,58,–,36,133,–,"COc1ccc(C2CCN(c3ccn[nH]3)CC2)c(Cl)c1 [Compound 66, 4-(2-Chloro-4-methoxyphenyl)-1-(1H-pyrazol-5-yl)piperidine]"
61.00,81.3,–,77.5,121,–,"Clc1cccc(C2CCN(c3cn[nH]c3)CC2)c1 [Compound 61, 4-(3-Chlorophenyl)-1-(1H-pyrazol-4-yl)piperidine]"
42.70,80.3,–,79.4,> 600,–,"O=C1CCCN1Cc1ccc(C2CCN(c3ccn[nH]3)CC2)cc1 [Compound 84, 1-(4-(1-(1H-Pyrazol-5-yl)piperidin-4-yl)benzyl)pyrrolidin-2-one]"
0.00,45,–,60.0,42.4,–,"Clc1ccc(C2CCN(c3ccn[nH]3)CC2)cc1 [Compound 62, 4-(4-chlorophenyl)-1-(1H-pyrazol-5-yl)piperidine]"
25.00,52.2,–,82,> 600,–,"CC(=O)N(C)c1ccc(C2CCN(c3ccn[nH]3)CC2)c(F)c1 [Compound 71, N-(4-(1-(1H-Pyrazol-5-yl)piperidin-4-yl)-3-fluorophenyl)-N-methylacetamide]"
0.00,32,–,55,201,–,"COc1cc(C2CCN(c3ccn[nH]3)CC2)ccc1F [Compound 74, 4-(4-Fluoro-3-methoxyphenyl)-1-(1H-pyrazol-5-yl)piperidine]"
42.00,90,–,86,89,–,"COc1ccc(SC2CCN(c3cn[nH]c3)CC2)cc1 [Compound 80, 4-((4-Methoxyphenyl)thio)-1-(1H-pyrazol-4-yl)piperidine]"
74.30,–,–,85.50,74,84.20,"Cl.Clc1ccc(CC2CCN(c3cn[nH]c3)CC2)cc1 [Compound 115, 4-(4-Chlorobenzyl)-1-(1H-pyrazol-4-yl)piperidine hydrochloride]"
35.70,80.5,–,84.8,109,–,"Fc1ccc(SC2CCN(c3cn[nH]c3)CC2)cc1 [Compound 70, 4-((4-Fluorophenyl)thio)-1-(1H-pyrazol-4-yl)piperidine]"
30.20,90.9,–,83.2,205,–,"COc1ccc(C2CCN(c3ccn[nH]3)CC2)cc1Cl [Compound 67, 4-(3-Chloro-4-methoxyphenyl)-1-(1H-pyrazol-5-yl)piperidine]"
0.00,54.7,–,61,164,–,"COc1cc(F)cc(C2CCN(c3ccn[nH]3)CC2)c1 [Compound 73, 4-(3-Fluoro-5-methoxyphenyl)-1-(1H-pyrazol-5-yl)piperidine]"
10.30,73.8,–,74.3,13.3,–,"Clc1ccc(C2CCN(c3cn[nH]c3)CC2)cc1 [Compound 63, 4-(4-chlorophenyl)-1-(1H-pyrazol-4-yl)piperidine]"

# Source: patent US12479816B2, “20-HETE formation inhibitors” (UNIVERSITY OF PITTSBURGH—OF THE COMMONWEALTH SYSTEM OF …, priority 2019, dated 2025)
